According to patent publication US6916832B2, “Chromeno[4,3,2-de]isoquinolines as potent dopamine receptor ligands” (University of North Carolina at Chapel Hill, priority 1999, dated 2005):

What was measured:
D1 receptor = D1 receptor (Homo sapiens, UniProt P21728); settings: preparations with decreased receptor reserve; cited from earlier work
[1] = test system: MPTP-treated monkey model; settings: cited from earlier work
[2] = biological target: T1, rat striatal D1 receptors (Rattus norvegicus, UniProt P18901); assay: Radioreceptor binding, rat striatal D1 receptors labeled with [3H]SCH23390
T1 construct: Frozen rat striata was homogenized by seven manual strokes; from tissue; host or cells: rat striatum
T1 sequence (P18901 whole entry): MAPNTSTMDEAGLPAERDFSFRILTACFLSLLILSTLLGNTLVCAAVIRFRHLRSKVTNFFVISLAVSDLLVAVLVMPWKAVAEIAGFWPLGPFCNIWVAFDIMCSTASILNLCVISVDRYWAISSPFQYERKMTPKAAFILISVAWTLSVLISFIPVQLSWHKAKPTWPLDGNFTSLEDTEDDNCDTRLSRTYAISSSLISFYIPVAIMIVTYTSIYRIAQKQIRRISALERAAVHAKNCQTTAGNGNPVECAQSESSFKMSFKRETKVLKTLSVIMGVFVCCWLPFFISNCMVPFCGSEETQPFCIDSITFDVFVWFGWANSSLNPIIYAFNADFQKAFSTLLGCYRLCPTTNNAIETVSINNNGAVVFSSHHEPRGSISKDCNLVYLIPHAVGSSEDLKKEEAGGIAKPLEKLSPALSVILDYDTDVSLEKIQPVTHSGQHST
Procedure: FIG. 1 is a graphic representation of the affinity of dinoxyline (circles), dinapsoline (diamonds) and (+)-SCH23390 (solid circles) for striatal D1 receptors. Rat striatal D1 receptors were labeled with [^3H]SCH23390 (1), and unlabeled dinoxyline, dinapsoline, or (+)-SCH23390 was added to determine the specific binding of each compound to the D1 receptor.
(§1) Frozen rat striata was homogenized by seven manual strokes in a Wheaton Teflon-glass homogenizer in 8 ml ice cold 50 mM HEPES buffer with 4.0 mM MgCl2, (pH 7.4). The tissue was centrifuged at 27,000×g for 10 min, the supernatant was discarded, and the pellet was homogenized (5 strokes) and resuspended in ice cold buffer and centrifuged again. The final pellet was suspended at a concentration of approximately 2.0 mg wet weight/ml. The amount of tissue added to each assay tube was 1.0 mg, in a final assay volume of 1.0 ml. D1 receptors were labeled with [^3H] SCH23390 (0.30 nM). D2 receptors were labeled with [^3H] spiperone (0.07 nM); unlabeled ketanserin (50 nM) was added to mask binding to 5HT2 sites. Total binding was defined as radioligand bound in the absence of any competing drug. Nonspecific binding was estimated by adding unlabeled SCH23390 (1 μM) or unlabeled chlorpromazine ([…]) for D1 and D2 receptor binding assays, respectively. Triplicate determinations were made for each drug concentration in each assay. Assay tubes were incubated at 37° C. for 15 minutes. Binding was terminated by filtering with ice cold buffer on a Skatron 12 well cell harvester (Skatron, Inc., Sterling, Va.) using glass fiber filter mats (Skatron no. 7034). Filters were allowed to dry and 2.0 ml of Optiphase HI-SAF II scintillation fluid was added. After shaking for 30 minutes, radioactivity was determined on a LKB Wallac 1219 RackBeta liquid scintillation counter (Wallac, Gaithersburg, Md.). Tissue protein levels were estimated using the BCA protein assay reagent.

striatal D2 receptors = assay: Radioreceptor binding, striatal D2 receptors labeled with [3H]spiperone; parameters: species or system rat; settings: compared with dihydrexidine
Procedure: FIG. 3 is a graphic representation of the affinity of dinoxyline (circles), dinapsoline (diamonds), and chlorpromazine for striatal D2 receptors labeled with [^3H]spiperone. Unlabeled dinoxyline, dinapsoline, or chlorpromazine was added to determine the specific binding of each compound to the D2 receptor.
as §1, with “Triplicate determinations were made for each drug concentration in each assay. Assay tubes were incubated at 37° C. for 15 minutes. Binding was terminated by filtering with ice cold buffer on a Skatron 12 well cell harvester (Skatron, Inc., Sterling, Va.) using glass fiber filter mats (Skatron no. 7034). Filters were allowed to dry and 2.0 ml of Optiphase HI-SAF II scintillation fluid was added.” left out, “Tissue protein levels were estimated using the BCA protein assay reagent.” left out

D1 receptors [3] = biological target: T2, D1 receptors (Rattus norvegicus, UniProt P18901); assay: cAMP production in rat striatum homogenate; assay type: biochemical; settings: for agonist intrinsic activity at D1 receptors: rat striatum / rat striatal membranes, relative to dopamine
T2 construct: Frozen rat striata was homogenized by seven manual strokes; from tissue; host or cells: rat striatum
T2 sequence (P18901 whole entry): as above
Procedure: Frozen striatal tissue (ca. 40 mg) was homogenized in 4 ml of buffer (5 mM Hepes, 2 mM EGTA, pH 7.5) using 10 strokes in a Wheaton Teflon-glass homogenizer. Four ml of 50 mM Hepes with 2 mM EGTA buffer (pH 7.5) was added, and the tissue was homogenized by an additional 3 strokes. A 20 μl aliquot of this tissue homogenate was added to a prepared reaction. The reaction mixture consisted of 100 mM Hepes (pH 7.4), 100 mM NaCl, 4 mM MgCl2, 2 mM EDTA, 500 μM isobutyl methylxanthine (IBMX), 0.01% ascorbic acid, 10 μM pargyline, 2 mM ATP, 5 μM GTP, 20 mM phosphocreatine, 5 units of creatine phosphokinase (CPK), and selected concentrations of DA. The final reaction volume was 100 μl. Basal cAMP activity was determined by incubation of tissue in the reaction mixture with no drug added. Tubes were assayed in duplicate. After a 15 min incubation at 30° C., the reaction was stopped with the addition of 500 μl of 0.1 N HCl. Tubes were vortexed briefly, and then spun in a BHG Hermle Z 230 M microcentrifuge for five min at 15,000×g to eliminate large particles. The concentration of cAMP in each sample was determined with an RIA of acetylated cAMP, modified from that previously described (Harper and Brooker, 1975). Iodination of cAMP was performed using a method described previously (Patel and Linden, 1988). Assay buffer was 50 mM sodium acetate buffer with 0.1% sodium azide (pH 4.75). Standard curves of cAMP were prepared in buffer at concentrations of 2 to 500 fmoles/assay tube. To improve assay sensitivity, all samples and standards were acetylated with 10 μl of a 2:1 solution of triethylamine:acetic anhydride. Samples were assayed in duplicate. Each assay tube contained 100 μl of diluted sample, 100 μl of primary antibody (sheep, anti-cAMP, 1:100,000 dilution with 1% BSA in buffer) and 100 μl of [^125I]-cAMP (50,000 dpm/100 μl of buffer); total assay volume was 300 μl. Tubes were vortexed and stored at 4° C. overnight (approx. 18 hr). Antibody-bound radioactivity was then separated by the addition of 25 μL of BioMag rabbit, anti-goat IgG (Advanced Magnetics, Cambridge Mass.), followed by vortexing and further incubation at 4° C. for 1 hr. To these samples 1 ml of 12% polyethylene glycol/50 mM sodium acetate buffer (pH 6.75) was added and all tubes were centrifuged at 1700×g for 10 min. Supernatants were aspirated and radioactivity in the resulting pellet was determined using an LKB Wallac gamma counter (Gaithersburg, Md.). Data were calculated for each sample, and expressed initially as pmol/mg/min cAMP. […] Normalized dose-response curves were analyzed by nonlinear regression using an algorithm for sigmoid curves in the curvefitting program InPlot (Graphpad, Inc.; San Francisco, Calif.). […]

D1 receptors [4] = biological target: T3, D1 receptors (Macaca mulatta, UniProt O77680); assay: cAMP production in C-6-mD1 cells (cloned expressed primate D1A receptors); assay type: cell-based; settings: for agonist intrinsic activity at D1 receptors: C-6-mD1 cells / cloned expressed primate D1A receptors, relative to dopamine
T3 construct: expressed in transfected cells; host or cells: C-6 glioma cells (C-6-mD1)
T3 sequence (O77680 whole entry): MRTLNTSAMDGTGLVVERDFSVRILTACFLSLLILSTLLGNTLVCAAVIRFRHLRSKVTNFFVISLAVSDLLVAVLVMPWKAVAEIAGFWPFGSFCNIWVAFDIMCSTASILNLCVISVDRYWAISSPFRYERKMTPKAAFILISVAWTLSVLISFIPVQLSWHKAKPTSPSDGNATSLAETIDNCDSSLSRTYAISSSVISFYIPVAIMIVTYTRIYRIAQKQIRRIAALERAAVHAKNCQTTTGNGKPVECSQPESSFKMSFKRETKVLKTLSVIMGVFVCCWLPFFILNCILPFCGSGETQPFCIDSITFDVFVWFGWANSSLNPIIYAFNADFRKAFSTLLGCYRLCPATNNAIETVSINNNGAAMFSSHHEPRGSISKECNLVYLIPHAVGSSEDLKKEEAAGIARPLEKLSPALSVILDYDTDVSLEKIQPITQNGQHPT
Procedure: Radioreceptor and function studies were also conducted for cloned human or monkey receptors transfected into one of several cell lines [e.g., C-6 glioma or Chinese hamster ovary (CHO) cells]. Cells were grown in appropriate medium, and at confluency, harvested for membrane preparation. Flasks of cells in the same passage were scraped using a rubber policeman and collected in 50 ml centrifuge tubes. These were spun for 10 min at 1200×g, to pellet whole cells. The supernatant was discarded and then five ml of PBS (phosphate buffered saline)/flask was added to the centrifuge tubes to resuspend the cells. The tubes were then centrifuged again for […] at 28,500×g. The PBS was removed and the pellet suspended in a solution of 10% DMSO in PBS. Cells were homogenized with a polytron for 10 seconds on setting 5. One ml aliquots were stored at −80° C. until use in receptor binding studies. Aliquots contained approximately 1 mg/ml of protein, as measured using the BCA protein assay reagent (Pierce, Rockford, Ill.). Agonist intrinsic activity was assessed by the ability of selected compounds to stimulate adenylate cyclase, as measured by cAMP formation in whole cells. In C-6 cells, for example, the dose response curve for each drug was fit using a sigmoid function to determine maximal effective concentration (top plateau of curve) as well as EC50s. All drugs were run in the same assay in order to decrease variability across cell passages. Confluent plates of cells were incubated with drugs dissolved in DMEM-H plain media supplemented with 20 mM Hepes, 0.01% ascorbic acid and 500 μM iso-butyl-methyl xanthine (IBMX; pH 7.2; media A). The final volume for each well was 500 μl. In addition to the dose response curves run for each drug, basal levels of cAMP and isoproterenol-stimulated (through endogenous β2 receptors, positive control) cAMP levels were evaluated for each plate. Each condition was run in duplicate wells. Following a 10 min incubation at 37° C., cells were rinsed briefly with media, and the reaction stopped with the addition of 500 μl 0.1 N HCl. Cells were then allowed to chill for 5-10 min at 4° C., the wells were scraped and the volume placed into 1.7 ml centrifuge tubes. An additional 1 ml of 0.1 N HCl was added to each tube, for a final volume of 1.5 ml/tube. Tubes were vortexed briefly, and then spun in a BHG Hermle Z 230 M microcentrifuge for five min at 15,000×g to eliminate large cellular particles. Cyclic AMP levels for each sample were determined as described above. Data were calculated for each sample, and expressed initially as pmol/mg/min cAMP. […] Normalized dose-response curves were analyzed by nonlinear regression using an algorithm for sigmoid curves in the curvefitting program InPlot (Graphpad, Inc.; San Francisco, Calif.). […]

cloned human D4 receptor = biological target: T4, cloned human D4 receptor (Homo sapiens, UniProt P21917); assay: Radioreceptor binding, cloned human D4 receptor; settings: read-out: K0.5 at the cloned human D4 receptor
T4 construct: expressed in transfected cells; host or cells: not specified (e.g. C-6 glioma or CHO cells)
T4 sequence (P21917 1-419): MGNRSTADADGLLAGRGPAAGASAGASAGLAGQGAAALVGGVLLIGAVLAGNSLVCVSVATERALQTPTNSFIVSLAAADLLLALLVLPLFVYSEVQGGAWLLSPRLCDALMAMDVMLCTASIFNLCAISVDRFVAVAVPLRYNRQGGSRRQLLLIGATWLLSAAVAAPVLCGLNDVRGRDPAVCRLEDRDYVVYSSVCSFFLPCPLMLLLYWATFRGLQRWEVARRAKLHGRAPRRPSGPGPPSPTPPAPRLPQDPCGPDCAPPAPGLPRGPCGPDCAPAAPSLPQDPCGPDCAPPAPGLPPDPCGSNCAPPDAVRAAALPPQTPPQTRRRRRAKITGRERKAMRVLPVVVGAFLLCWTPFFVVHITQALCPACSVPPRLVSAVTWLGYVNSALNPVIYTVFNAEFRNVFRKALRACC
Procedure: Cells were grown in appropriate medium, and at confluency, harvested for membrane preparation. Flasks of cells in the same passage were scraped using a rubber policeman and collected in 50 ml centrifuge tubes. These were spun for 10 min at 1200×g, to pellet whole cells. The supernatant was discarded and then five ml of PBS (phosphate buffered saline)/flask was added to the centrifuge tubes to resuspend the cells. The tubes were then centrifuged again for min at 28,500×g. The PBS was removed and the pellet suspended in a solution of 10% DMSO in PBS. Cells were homogenized with a polytron for 10 seconds on setting 5. One ml aliquots were stored at −80° C. until use in receptor binding studies. Aliquots contained approximately 1 mg/ml of protein, as measured using the BCA protein assay reagent (Pierce, Rockford, Ill.). […]

D1 and D2 receptors = assay: D1:D2 selectivity from receptor binding
Procedure: as §1, with “Filters were allowed to dry and 2.0 ml of Optiphase HI-SAF II scintillation fluid was added.” left out, “Tissue protein levels were estimated using the BCA protein assay reagent.” left out

[5] = test system: rat unilateral 6-OHDA-lesion model; assay: Rat unilateral 6-OHDA-lesion model, contralateral rotation; assay type: in vivo
Excerpt: (§2) Accordingly dinoxyline and its derivatives have potential clinical utility in Parkinson's Disease and in other conditions where perturbation of dopamine receptors may be therapeutic.

[6] = test system: marmosets having moderately-severe MPTP-induced dopamine denervation; assay: Marmosets with moderately-severe MPTP-induced dopamine denervation; assay type: in vivo, marmoset; settings: preliminary studies
Excerpt: as §2

D2-like receptors = assay: Functional selectivity at D2-like receptors in rats (in vivo or in vitro); parameters: species or system rat

D1 receptor, sequence (P21728 whole entry): as the sequence (O77680 whole entry) above, with I311N counted along it

C=CCN1CCc2c(cc(O)c(O)c2Cl)C(c2ccccc2)C1 (stereo not shown) [SKF82958]
intrinsic efficacy at D1 receptor (D1 receptor): not to have full intrinsic efficacy

NC[C@@H]1O[C@H](C23CC4CC(CC(C4)C2)C3)Cc2c1ccc(O)c2O [Example A-77636]
antiparkinsonian effects [1]: exceptional antiparkinsonian effects

Br.Oc1ccc2c(c1O)Oc1cccc3c1C2CNC3 (racemic) [dinoxyline, (±)-8,9-dihydroxy-1,2,3,11b-tetrahydrochromeno[4,3,2-de]isoquinoline hydrobromide]
Ki ([2]; [3H]SCH23390 label, rat striatum, read-out: K0.5 for rat striatal D1 receptors): < 5 nM
affinity for dopamine D1 receptors labeled with [3H]SCH23390 (in words) ([2]; compared with dihydrexidine): high affinity
nH of competition curve ([2]; competition at D1 receptors labeled with [3H]SCH23390, shallow curve consistent with agonist properties): ca. 0.7
affinity for D2-like receptors (in words) (striatal D2 receptors): greater affinity
agonist intrinsic activity at D1 receptors (D1 receptors [3]; hydrobromide): full agonist activity
EC50 (D1 receptors [3]; rat striatum, read-out: EC50 in stimulating synthesis of cAMP via D1 receptors): < 30 nM
agonist intrinsic activity at D1 receptors (D1 receptors [4]; hydrobromide): full agonist activity
EC50 (D1 receptors [4]; C-6-mD1 cells, read-out: EC50 in stimulating synthesis of cAMP via D1 receptors): < 30 nM
Ki (cloned human D4 receptor): < 45 nM
D1:D2 selectivity (D1 and D2 receptors): equally high affinity for both receptors
duration of action relative to a similar dose of dihydrexidine ([5]; same route (subcutaneous)): more than twice
contralateral rotation ([5]; single subcutaneous dose): significant rotation
antiparkinson effects (locomotion, arousal, Parkinson signs) [6]: significant antiparkinson effects
melting point: 298 to 302 °C (dec.)

Oc1ccc2c(c1O)Cc1cccc3c1C2CNC3 (racemic) [dinapsoline, (±)-8,9-dihydroxy-2,3,7,11b-tetrahydro-1H-naphtho[1,2,3-de]isoquinoline, reference compound]
Ki (cloned human D4 receptor): > 1000 nM
D1:D2 selectivity (D1 and D2 receptors): five-fold

Oc1cc2c(cc1O)C(c1ccccc1)CNCC2 (single isomer, unassigned; (+)) [(+)-SKF 38393, reference compound]
agonist intrinsic activity at D1 receptors (D1 receptors [3]): partial agonist
agonist intrinsic activity at D1 receptors (D1 receptors [4]): partial agonist

Oc1cc2c(cc1O)[C@H]1c3ccccc3CN[C@@H]1CC2 (racemic) [dihydrexidine, (±)-trans-10,11-dihydroxy-5,6,6a,7,8,12b-hexahydrobenzo[a]phenanthridine]
agonist intrinsic activity at D1 receptors (D1 receptors [3]): full agonist
agonist intrinsic activity at D1 receptors (D1 receptors [4]): full agonist
activity at D2-like receptors located post-synaptically (D2-like receptors): agonist
activity at D2-like receptors located pre-synaptically (D2-like receptors): antagonist
antiparkinsonian effects [1]: exceptional antiparkinsonian effects
